Data reported in ChEMBL document CHEMBL4406880, “Design, synthesis, and bioactivity of dihydropyrimidine derivatives as kinesin spindle protein inhibitors” (Bioorg Med Chem, 2019).

Assays:
U-251 = test: Growth inhibition of human U251 cells assessed as cell viability at 0.001 uM incubated for 48 hrs by sulforhodamine B assay relative to control; assay type: functional; details: U-251, 48 h, read-out: Activity
SNB-75 = test: Induction of apoptosis in human SNB75 cells assessed as late apoptotic cells at 2 uM incubated for 24 hrs by annexin V FITC and propidium iodide based flow cytometry (reference value: 0.59 %); assay type: functional

Work on `CC1=C(C(=O)OCc2ccccc2)C(c2ccc3c(c2)OCO3)n2c(nc3ccccc32)N1` (racemic) yielded a viability at 0.001 µM (U-251) of 94% and an Activity (SNB-75) of 15.12%.
